{"source": "patent US20060235063A1", "about": "“Method of protecting a soybean plant with flutriafol” (priority 2005, published 2006)", "key": {"[1]": {"system": "Asian Rust (Phakopsora pachyrhizi) in Soy Beans", "experiment": "Example 1: climate chamber test, flutriafol seed or soil dressing, plants inoculated with rust spores at third trifoliate", "assay_type": "in vivo", "protocol": "(§1) Soy bean seed was treated with a range of flutriafol rates, as presented in Table 1 below (right-hand side). Additionally, flutriafol was applied directly to the soil, at the rates described below (left-hand side). Three replicates were done per treatment. At the third trifoliate stage, seedlings where inoculated with rust spores on the ad- and ab-axial surfaces of the third trifoliate.\nFollowing treatments and inoculations, the inoculated plants were transferred to a climate chamber, watered as necessary and evaluated for the incidence of Asian Rust. The average of the recorded incidence of disease (%) on the third trifoliate is presented below. An untreated control is also provided as comparative data."}, "Asian Rust in Soy Beans": {"system": "Asian Rust in Soy Beans", "experiment": "Example 3: greenhouse experiment, flutriafol seed or soil dressing, plants inoculated with rust spores at third trifoliate", "assay_type": "in vivo, Phakopsora pachyrhizi", "design": "average recorded incidence of disease on the third trifoliate: unit not given here", "protocol": "as §1, with “Soya” for “Soy bean”, “3” for “1”, “where made” for “were done”\nFollowing treatments and inoculations, the inoculated plants where transferred to a climate chamber, watered as necessary and evaluated for the incidence of Asian Rust. The average of the recorded incidence of disease on the third trifoliate is presented below."}, "soybean rust": {"system": "soybean rust", "experiment": "Example 2: field trial at Formoso do Araguaia, Brazil, percentage rust coverage on leaves", "assay_type": "in vivo", "excerpt": "A trial in Brazil at Formoso do Araguaia examined the rust control from nine rates of flutriafol applied as a 1.5% granule in a rate range of 4 to 40 kg formulated product per hectare (60 to 600 g flutriafol active ingredient per hectare), three rates of Vincit 2.5% powder seed dressing at […] formulated product per 100 kg seed (2.25 to 3.75 g flutriafol active ingredient per 100 kg seed) and four rates of Vincit 5% SC suspension concentrate seed dressing at 50 to 150 g formulation per 100 kg seed (1.5 to 4.5 g flutriafol active ingredient per 100 kg seed).\nThese treatments were compared with an untreated and a commercial standard treatment of Derosal Plus, which is a mixture of carbendazim plus thiram in a suspension concentrate formulation applied to seed at a rate of 200 ml formulation per 100 kg seed (30 g thiram plus 70 g carbendazim) per 100 kg seed. Both the untreated sample and the Derosal Plus treatment are provided below as comparative data.\n(§2) Seed was drilled at 60 kg per hectare in four replicates per treatment. Each replicate consisted of a 6 m row of 100 seeds. With the seed treatments, fertilizer was first applied up to 2 cm below seed depth and then the rows opened to a depth of 3 cm, the seeds sown and the rows closed with soil. In each treatment there were five rows of 6 m length with 45 cm between rows. With the in-furrow treatments, the row was opened using a hoe, and then the appropriate weight amount of Impact 1.5 GR was applied in the row followed directly afterwards with seed placed over the granules. Soil was then placed over the seed to close the row.\n(§3) Twenty two days after planting, the number of plants emerged was evaluated by counting the emerged seedlings in each of the central three rows of each plot. Disease assessment was done 61 days after emergence by selecting 20 leaves per plot from the whole plant at random, and estimating the percentage rust coverage (% disease severity)."}, "soybean": {"system": "soybean", "experiment": "Example 2: field trial, count of emerged seedlings (crop safety)", "conditions": "in vivo", "excerpt": "as §2, §3"}}, "data": [{"compound": "OC(Cn1cncn1)(c1ccc(F)cc1)c1ccccc1F", "note": "(racemic) [flutriafol, (RS)-2,4′-difluoro-α-(1H-1,2,4-triazol-1-ylmethyl)benzhydryl alcohol]", "values": [{"measurement": "disease control (in words)", "setting": "[1]; in-furrow treatments using 30 grams or more flutriafol per hectare", "result": "Significant improvements"}, {"measurement": "average recorded incidence of disease (%) on the third trifoliate", "setting": "[1]; seed treatment 3 ppm", "result": 47, "unit": "%"}, {"measurement": "average recorded incidence of disease (%) on the third trifoliate", "setting": "[1]; seed treatment 10 ppm", "result": 28, "unit": "%"}, {"measurement": "average recorded incidence of disease (%) on the third trifoliate", "setting": "[1]; seed treatment 30 ppm", "result": 8, "unit": "%"}, {"measurement": "average recorded incidence of disease (%) on the third trifoliate", "setting": "[1]; seed treatment 100 ppm", "result": 1, "unit": "%"}, {"measurement": "average recorded incidence of disease (%) on the third trifoliate", "setting": "[1]; seed treatment 300 ppm", "result": 0, "unit": "%"}, {"measurement": "average recorded incidence of disease (%) on the third trifoliate", "setting": "[1]; seed treatment 1000 ppm", "result": 0, "unit": "%"}, {"measurement": "disease control (in words)", "setting": "[1]; seed treatments using 10 ppm flutriafol or more", "result": "Significant improvements"}, {"measurement": "average recorded incidence of disease (%) on the third trifoliate", "setting": "[1]; soil application 3 g ai/Ha", "result": 73, "unit": "%"}, {"measurement": "average recorded incidence of disease (%) on the third trifoliate", "setting": "[1]; soil application 10 g ai/Ha", "result": 63, "unit": "%"}, {"measurement": "average recorded incidence of disease (%) on the third trifoliate", "setting": "[1]; soil application 30 g ai/Ha", "result": 53, "unit": "%"}, {"measurement": "average recorded incidence of disease (%) on the third trifoliate", "setting": "[1]; soil application 100 g ai/Ha", "result": 12, "unit": "%"}, {"measurement": "average recorded incidence of disease (%) on the third trifoliate", "setting": "[1]; soil application 300 g ai/Ha", "result": 2, "unit": "%"}, {"measurement": "average recorded incidence of disease (%) on the third trifoliate", "setting": "[1]; soil application 1000 g ai/Ha", "result": 1, "unit": "%"}, {"measurement": "disease control (in words)", "setting": "Asian Rust in Soy Beans; in-furrow treatments using 30 grams flutriafol per hectare or more", "result": "Complete disease control"}, {"measurement": "disease control (in words)", "setting": "Asian Rust in Soy Beans; in-furrow treatments using just 3 grams flutriafol per hectare", "result": "Significant improvements in disease control"}, {"measurement": "average recorded incidence of disease on the third trifoliate", "setting": "Asian Rust in Soy Beans; seed treatment 3 ppm, 21DPI", "result": 31}, {"measurement": "average recorded incidence of disease on the third trifoliate", "setting": "Asian Rust in Soy Beans; seed treatment 10 ppm, 21DPI", "result": 35}, {"measurement": "average recorded incidence of disease on the third trifoliate", "setting": "Asian Rust in Soy Beans; seed treatment 30 ppm, 21DPI", "result": 40}, {"measurement": "average recorded incidence of disease on the third trifoliate", "setting": "Asian Rust in Soy Beans; seed treatment 100 ppm, 21DPI", "result": 0}, {"measurement": "average recorded incidence of disease on the third trifoliate", "setting": "Asian Rust in Soy Beans; seed treatment 300 ppm, 21DPI", "result": 0}, {"measurement": "average recorded incidence of disease on the third trifoliate", "setting": "Asian Rust in Soy Beans; seed treatment 1000 ppm, 21DPI", "result": 0}, {"measurement": "disease control (in words)", "setting": "Asian Rust in Soy Beans; seed treatments using 100 ppm flutriafol or more", "result": "Complete disease control"}, {"measurement": "average recorded incidence of disease on the third trifoliate", "setting": "Asian Rust in Soy Beans; soil treatment 3 g ai/Ha, 28DPI", "result": 18}, {"measurement": "average recorded incidence of disease on the third trifoliate", "setting": "Asian Rust in Soy Beans; soil treatment 10 g ai/Ha, 28DPI", "result": 16}, {"measurement": "average recorded incidence of disease on the third trifoliate", "setting": "Asian Rust in Soy Beans; soil treatment 30 g ai/Ha, 28DPI", "result": 0}, {"measurement": "average recorded incidence of disease on the third trifoliate", "setting": "Asian Rust in Soy Beans; soil treatment 100 g ai/Ha, 28DPI", "result": 0}, {"measurement": "average recorded incidence of disease on the third trifoliate", "setting": "Asian Rust in Soy Beans; soil treatment 300 g ai/Ha, 28DPI", "result": 0}, {"measurement": "average recorded incidence of disease on the third trifoliate", "setting": "Asian Rust in Soy Beans; soil treatment 1000 g ai/Ha, 28DPI", "result": 0}, {"measurement": "rust control (in words)", "setting": "soybean rust; all flutriafol seed treatment rates", "result": "reduction in rust"}, {"measurement": "rust control (in words)", "setting": "soybean rust; in-furrow, lowest rate of 60 g flutriafol/hectare, 61 days after plant emergence", "result": "controlled the rust"}, {"measurement": "rust control (in words)", "setting": "soybean rust; in-furrow, rates above 150 g flutriafol/hectare, 61 days after emergence", "result": "complete control"}, {"measurement": "effect on plant numbers (in words)", "setting": "soybean", "result": "unaffected"}, {"measurement": "phytotoxicity (in words)", "setting": "soybean", "result": "phytotoxic"}]}]}
